Some test systems named below: 786-0 renal; DU-145 prostate; HT29 colon; IGROV1 ovarian; MDA-MB-231 breast; NCI-H23 lung; NCI/ADR-RES ovarian; OVCAR-4 ovarian; RXF 393 renal; SK-MEL-2 melanoma; SK-MEL-5 melanoma; SN12C renal; UACC-257 melanoma.
Common to all, as to test: NCI-60 cell line screen, 48 h

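48-hour exposure; five concentrations; linearly interpolated endpoints. Definition used: TGI = concentration required for complete inhibition of growth.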

In the case of `CCOC(=O)C1(C/C=C\CBr)CCCC1=O` (stereo not given), the TGI in the assay on 786-0 renal was above 100 µM; with DU-145 prostate, 73.2 µM; with HT29 colon, above 100 µM; in the assay with IGROV1 ovarian it was above 100 µM; in the assay with MDA-MB-231 breast, 84 µM; with NCI-H23 lung it was 56.7 µM. The TGI in the assay with NCI/ADR-RES ovarian is 57.2 µM; in the assay on OVCAR-4 ovarian it was above 100 µM; in the assay with RXF 393 renal, 31.3 µM; in the assay on SK-MEL-2 melanoma it was above 100 µM; with SK-MEL-5 melanoma it was above 100 µM; in the assay with SN12C renal it was 40.1 µM. Moreover, in the assay with UACC-257 melanoma, the TGI is above 100 µM.

With `COC(=O)[C@@H]1[C@@H]2NC(=S)N[C@@]1(C)Oc1ccccc12`, the TGI in the assay on 786-0 renal, with DU-145 prostate, in the assay on HT29 colon, in the assay on IGROV1 ovarian, in the assay with MDA-MB-231 breast and in the assay on NCI-H23 lung was above 100 µM each time. For the same compound, the TGI in the assay on NCI/ADR-RES ovarian, in the assay with OVCAR-4 ovarian, in the assay on RXF 393 renal, in the assay with SK-MEL-2 melanoma, in the assay with SK-MEL-5 melanoma and in the assay with SN12C renal was above 100 µM throughout. The compound further gave a TGI with UACC-257 melanoma above 100 µM.

On to `C[C@@H](CC(=O)OCc1ccccc1)OC1OC(COC(=O)C(C)(C)C)C(OC(=O)C(C)(C)C)C(OC(=O)C(C)(C)C)C1OC(=O)C(C)(C)C` (stereo not given in full), for which the TGI with 786-0 renal, with DU-145 prostate, in the assay with HT29 colon, with IGROV1 ovarian, in the assay with MDA-MB-231 breast and with NCI-H23 lung was above 100 µM throughout. Also, the TGI in the assay on NCI/ADR-RES ovarian, in the assay on OVCAR-4 ovarian, in the assay with RXF 393 renal, in the assay on SK-MEL-2 melanoma, in the assay with SK-MEL-5 melanoma and in the assay on SN12C renal was above 100 µM each time. This compound also displayed a TGI in the assay on UACC-257 melanoma above 100 µM.

Consider `O=C(NCCN(CCNC(=O)c1cccc(O)c1O)CCNC(=O)c1cccc(O)c1O)c1cccc(O)c1O`, for which the TGI in the assay on 786-0 renal is above 100 µM; in the assay with DU-145 prostate, above 78.9 µM; with HT29 colon, above 100 µM; in the assay with IGROV1 ovarian, above 72.4 µM; in the assay on MDA-MB-231 breast, above 100 µM; in the assay on NCI-H23 lung, above 57.4 µM. Further, the TGI is above 100 µM with NCI/ADR-RES ovarian; above 100 µM in the assay with OVCAR-4 ovarian; 94.6 µM in the assay with RXF 393 renal; above 100 µM with SK-MEL-2 melanoma; above 55.8 µM in the assay with SK-MEL-5 melanoma; above 100 µM in the assay with SN12C renal. The same compound gave a TGI with UACC-257 melanoma above 100 µM.

In the case of `CCOC(=O)c1cn(CC)c(=O)n2c1nc1ccccc12`, the TGI with 786-0 renal, in the assay on DU-145 prostate, with HT29 colon, in the assay on IGROV1 ovarian, in the assay on MDA-MB-231 breast and with NCI-H23 lung was above 100 µM throughout. The TGI in the assay on NCI/ADR-RES ovarian, in the assay on OVCAR-4 ovarian, in the assay on RXF 393 renal, in the assay with SK-MEL-2 melanoma, in the assay with SK-MEL-5 melanoma and in the assay with SN12C renal was above 100 µM in each case. The same compound yielded a TGI in the assay on UACC-257 melanoma above 100 µM.

For the compound `Cc1nc2sc3cccc(Cl)c3n2c(=O)c1N=Nc1ccc(Cl)cc1`, the TGI in the assay on 786-0 renal, in the assay with DU-145 prostate, in the assay on HT29 colon, in the assay on IGROV1 ovarian, with MDA-MB-231 breast and in the assay with NCI-H23 lung was above 100 µM each time. Also, the TGI with NCI/ADR-RES ovarian, in the assay on OVCAR-4 ovarian, in the assay on RXF 393 renal, with SK-MEL-2 melanoma, with SK-MEL-5 melanoma and in the assay on SN12C renal was above 100 µM each time. The TGI in the assay with UACC-257 melanoma is above 100 µM.

For the compound `CC(C)C(Cl)CCC(C)(Cl)C(=O)CBr` (stereo not given), the TGI with 786-0 renal is 8.02 µM; in the assay with DU-145 prostate, 36.7 µM; with HT29 colon, 11.6 µM; in the assay on IGROV1 ovarian, 16.9 µM; with MDA-MB-231 breast, 21.5 µM; in the assay with NCI-H23 lung, 21.8 µM. Besides, the TGI with NCI/ADR-RES ovarian is 23.6 µM; in the assay with OVCAR-4 ovarian, 12.7 µM; in the assay on RXF 393 renal, 7.79 µM; with SK-MEL-2 melanoma, 21.9 µM; with SK-MEL-5 melanoma, 14.3 µM; in the assay on SN12C renal, 29.4 µM. This compound returned a TGI with UACC-257 melanoma of 16.6 µM.

Take `C=C1CC[C@@H](CCC2CCC3(OC2)O[C@]2(O)CC[C@@]3(C)OC2(C)C)C(C)(C)[C@H]1C/C=C1\CCOC1=O` (stereo not given in full): the TGI in the assay with 786-0 renal is 31.3 µM; with DU-145 prostate it was above 100 µM; in the assay with HT29 colon, 31.1 µM; in the assay on IGROV1 ovarian it was above 100 µM; with MDA-MB-231 breast, above 80.4 µM; in the assay on NCI-H23 lung, above 100 µM. The TGI in the assay with NCI/ADR-RES ovarian was above 100 µM; in the assay on OVCAR-4 ovarian it was above 100 µM; in the assay with RXF 393 renal, 49.5 µM; in the assay on SK-MEL-2 melanoma, 48.3 µM; in the assay with SK-MEL-5 melanoma, 4.93 µM; in the assay on SN12C renal, 51.1 µM. In the assay with UACC-257 melanoma, this compound yielded a TGI above 67.6 µM.

Consider `CC(C)(C)OC(=O)N(CCCCNC(=O)C(F)(F)F)CCCNC(=O)C(F)(F)F`, for which the TGI in the assay on 786-0 renal, in the assay on DU-145 prostate, in the assay on HT29 colon, with IGROV1 ovarian, with MDA-MB-231 breast and in the assay with NCI-H23 lung was above 100 µM each time. The TGI in the assay with NCI/ADR-RES ovarian, in the assay on OVCAR-4 ovarian, with RXF 393 renal, with SK-MEL-2 melanoma, in the assay with SK-MEL-5 melanoma and in the assay with SN12C renal was above 100 µM throughout. This compound displayed a TGI in the assay on UACC-257 melanoma above 100 µM.

On to `Cc1ccc(S[C@@](C=O)(NC(=O)OCc2ccccc2)C(F)(F)F)cc1`, for which the TGI with 786-0 renal was determined as 47.5 µM; in the assay with DU-145 prostate, 47.4 µM; with HT29 colon, 37.9 µM; in the assay on IGROV1 ovarian, 54.3 µM; in the assay on MDA-MB-231 breast it was 58.7 µM; in the assay with NCI-H23 lung, 39.8 µM. Further, the TGI in the assay with NCI/ADR-RES ovarian was 51.8 µM; in the assay on OVCAR-4 ovarian, above 100 µM; in the assay on RXF 393 renal, 31.2 µM; in the assay with SK-MEL-2 melanoma, 60.8 µM; in the assay on SK-MEL-5 melanoma, 41.4 µM; in the assay on SN12C renal, 91.7 µM. Also, the TGI with UACC-257 melanoma is above 100 µM.

Values taken from PubChem BioAssay (NCI).
